Data reported in ChEMBL document CHEMBL5042509, “Benzophenone Glucosides and B-Type Proanthocyanidin Dimers from Zambian Cassia abbreviata and Their Trypanocidal Activities” (J Nat Prod, 2022).
In brackets after ≈: the same amount, converted by molar mass.

How the values were obtained:
[1] = system: Trypanosoma brucei rhodesiense; experiment: Trypanocidal activity against Trypanosoma brucei rhodesiense assessed as parasite growth inhibition at 50 ug/ml incubated for 3 days by Celltiter-Glo luminescence assay; assay type: functional; design: scale not given: the % may be the effect or the level left; details: dose 50 µg/ml; time 3 day
[2] = system: Trypanosoma brucei rhodesiense; experiment: Trypanocidal activity against Trypanosoma brucei rhodesiense IL1501 assessed as parasite growth inhibition at 50 ug/ml incubated for 3 days by Celltiter-Glo luminescence assay; assay type: functional; design: scale not given: the % may be the effect or the level left; details: dose 50 µg/ml; time 3 day
[3] = system: Trypanosoma brucei brucei; experiment: Trypanocidal activity against Trypanosoma brucei brucei GUTat3.1 assessed as parasite growth inhibition incubated for 3 days by Celltiter-Glo luminescence assay; assay type: functional, organism-based; details: GUTat3.1, 72 h
Trypanosoma evansi [4] = experiment: Trypanocidal activity against Trypanosoma evansi assessed as parasite growth inhibition at 50 ug/ml incubated for 3 days by Celltiter-Glo luminescence assay; assay type: functional; design: scale not given: the % may be the effect or the level left; details: dose 50 µg/ml; time 3 day
[5] = system: Trypanosoma brucei brucei; experiment: Trypanocidal activity against Trypanosoma brucei brucei GUTat3.1 assessed as parasite growth inhibition at 50 ug/ml incubated for 3 days by Celltiter-Glo luminescence assay; assay type: functional; design: scale not given: the % may be the effect or the level left; details: dose 50 µg/ml; time 3 day
[6] = system: Trypanosoma brucei gambiense; experiment: Trypanocidal activity against Trypanosoma brucei gambiense IL1922 assessed as parasite growth inhibition at 50 ug/ml incubated for 3 days by Celltiter-Glo luminescence assay; assay type: functional; design: scale not given: the % may be the effect or the level left; details: dose 50 µg/ml; time 3 day
[7] = system: Trypanosoma brucei gambiense; experiment: Trypanocidal activity against Trypanosoma brucei gambiense IL1922 assessed as parasite growth inhibition incubated for 3 days by Celltiter-Glo luminescence assay; assay type: functional, organism-based; details: IL1922, 72 h
[8] = system: Trypanosoma brucei rhodesiense; experiment: Trypanocidal activity against Trypanosoma brucei rhodesiense IL1501 assessed as parasite growth inhibition incubated for 3 days by Celltiter-Glo luminescence assay; assay type: functional, organism-based; details: IL1501, 72 h
[9] = system: Trypanosoma brucei rhodesiense; experiment: Trypanocidal activity against Trypanosoma brucei rhodesiense assessed as parasite growth inhibition incubated for 3 days by Celltiter-Glo luminescence assay; assay type: functional, organism-based; details: 72 h
Trypanosoma evansi [10] = experiment: Trypanocidal activity against Trypanosoma evansi assessed as parasite growth inhibition incubated for 3 days by Celltiter-Glo luminescence assay; assay type: functional, organism-based; details: 72 h
Trypanosoma congolense [11] = experiment: Trypanocidal activity against Trypanosoma congolense IL3000 assessed as parasite growth inhibition incubated for 3 days by Celltiter-Glo luminescence assay; details: IL3000, 72 h
Trypanosoma congolense [12] = experiment: Trypanocidal activity against Trypanosoma congolense IL3000 assessed as parasite growth inhibition at 50 ug/ml incubated for 3 days by Celltiter-Glo luminescence assay; design: scale not given: the % may be the effect or the level left; details: dose 50 µg/ml; time 3 day

Oc1ccc([C@H]2Oc3cc(O)cc(O)c3C[C@@H]2O)cc1
Activity [1]: 99.71% | Activity [2]: 96.07% | IC50 [3]: 38.6 µg/mL (≈ 141 µM) | Activity (Trypanosoma evansi [4]): 99.7% | Activity [5]: 98.54% | Activity [6]: 90.28% | IC50 [7]: 46.4 µg/mL (≈ 169 µM) | IC50 [8]: 45.7 µg/mL (≈ 167 µM) | IC50 [9]: 4.03 µg/mL (≈ 14.7 µM) | IC50 (Trypanosoma evansi [10]): 14.4 µg/mL (≈ 52.6 µM) | IC50 (Trypanosoma congolense [11]): 28.3 µg/mL (≈ 103 µM) | Activity (Trypanosoma congolense [12]): 99.57%
